Assay results: the supplement of paper PMC10627819

Legend:
B. subtilis 168 [1] = assay: fitness (endpoint OD595 vs no drug) (fraction); higher = more growth
Summary of the method: (§1)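 Fitness was defined as the optical density at the transition into stationary phase relative to the robust mean of no-drug control wells. Values were capped at 1. Cultures were started at OD595 0.01 in 384-well plates (30 µl, or 55 µl for S. pneumoniae) in TSB, LB Lennox or CY at 37 °C. OD595 was recorded every 30 min over 14 h, with the first reading subtracted as background.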

S. aureus DSM 20231 [2] = assay: as above
Summary of the method: as §1

S. pneumoniae D39V [3] = assay: as above
Summary of the method: as §1

B. subtilis 168 [4] = assay: Bliss interaction score (quartile over a dose matrix) (fitness difference); higher = more antagonism (negative = synergy)
Summary of the method: (§2)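 Fitness was derived from optical density at entry into stationary phase, divided by the robust mean of the no-drug wells on the same plate. That reading was taken as OD595, and the ratio was capped at 1. Single-drug fitness was inferred from the combination data. The Bliss score, observed fitness minus the expected product of single-drug fitness, was summarised as quartiles over technical, biological and donor/recipient replicates.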

S. aureus DSM 20231 [5] = assay: as above
Summary of the method: as §2

S. aureus Newman = assay: as above
Summary of the method: as §2

S. pneumoniae D39V [6] = assay: as above
Summary of the method: as §2
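Throughout, for Bliss interaction score (quartile over a dose matrix): first quartile when negative (synergy) and third quartile when positive (antagonism).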

CCC[C@@H]1C[C@@H](C(=O)N[C@@H]([C@H]2O[C@H](SC)[C@H](O)[C@@H](O)[C@H]2O)[C@@H](C)O)N(C)C1 [Lincomycin] + Cc1onc(-c2ccccc2)c1C(=O)N[C@@H]1C(=O)N2[C@@H]1SC(C)(C)[C@@H]2C(=O)O [Oxacillin]
fitness
Conditions | first compound 0.1 µg/mL | first compound 0.2 µg/mL | first compound 0.215 µg/mL | first compound 0.4 µg/mL | first compound 0.43 µg/mL | first compound 0.8 µg/mL | first compound 0.86 µg/mL
B. subtilis 168 [1], partner 0.002 µg/mL | 0.911 | 0.939 | – | 0.913 | – | – | –
B. subtilis 168 [1], partner 0.004 µg/mL | 0.881 | 0.923 | – | 0.926 | – | – | –
B. subtilis 168 [1], partner 0.008 µg/mL | 0.891 | 0.877 | – | 0.83 | – | – | –
S. aureus DSM 20231 [2], partner 0.0156 µg/mL | 0.785 | 0.78 | – | 0.291 | – | – | –
S. aureus DSM 20231 [2], partner 0.0312 µg/mL | 0.655 | 0.682 | – | 0.259 | – | – | –
S. aureus DSM 20231 [2], partner 0.0625 µg/mL | 0.491 | 0.515 | – | 0.173 | – | – | –
S. pneumoniae D39V [3], partner 0.01 µg/mL | – | 0.765 | 0.927 | 0.63 | 0.762 | – | 0.507
S. pneumoniae D39V [3], partner 0.02 µg/mL | – | 0.764 | 0.882 | 0.588 | 0.778 | – | 0.483
S. pneumoniae D39V [3], partner 0.04 µg/mL | – | 0.509 | 0.787 | 0.403 | 0.716 | 0.139 | 0.404

fitness, B. subtilis 168 [1], one replicate
Conditions | partner 0.0078 µg/mL | partner 0.0155 µg/mL | partner 0.031 µg/mL | partner 0.075 µg/mL | partner 0.15 µg/mL | partner 0.3 µg/mL
first compound 0.1 µg/mL | ≥ 1 | ≥ 1 | ≥ 1 | – | – | –
first compound 0.2 µg/mL | ≥ 1 | ≥ 1 | 0.889 | – | – | –
first compound 0.4 µg/mL | ≥ 1 | ≥ 1 | 0.934 | 0.183 | 0.0398 | 0.0489
first compound 0.8 µg/mL | – | – | – | 0.403 | 0.0361 | 0.0601
first compound 1.6 µg/mL | – | – | – | 0.261 | 0.0594 | 0.0563

Conditions | Bliss interaction score
B. subtilis 168 [4] | -0.0676
S. aureus DSM 20231 [5] | 0.119
S. aureus Newman | 0.137
S. pneumoniae D39V [6] | 0.189

CCC[C@@H]1C[C@@H](C(=O)N[C@@H]([C@H]2O[C@H](SC)[C@H](O)[C@@H](O)[C@H]2O)[C@@H](C)O)N(C)C1 [Lincomycin] + CN1C2=CC=CC=C2N=C3C1=CC=CC3=O [Pyocyanin]
Conditions | fitness
B. subtilis 168 [1], first compound 0.1 µg/mL, partner 1.25 µg/mL | 0.899
B. subtilis 168 [1], first compound 0.1 µg/mL, partner 2.5 µg/mL | 0.823
B. subtilis 168 [1], first compound 0.1 µg/mL, partner 5 µg/mL | 0.694
B. subtilis 168 [1], first compound 0.2 µg/mL, partner 1.25 µg/mL | 0.862
B. subtilis 168 [1], first compound 0.2 µg/mL, partner 2.5 µg/mL | 0.8
B. subtilis 168 [1], first compound 0.2 µg/mL, partner 5 µg/mL | 0.668
B. subtilis 168 [1], first compound 0.4 µg/mL, partner 1.25 µg/mL | 0.827
B. subtilis 168 [1], first compound 0.4 µg/mL, partner 2.5 µg/mL | 0.792
B. subtilis 168 [1], first compound 0.4 µg/mL, partner 5 µg/mL | 0.66
S. aureus DSM 20231 [2], first compound 0.1 µg/mL, partner 1.25 µg/mL | 0.794
S. aureus DSM 20231 [2], first compound 0.1 µg/mL, partner 2.5 µg/mL | 0.883
S. aureus DSM 20231 [2], first compound 0.1 µg/mL, partner 5 µg/mL | 0.555
S. aureus DSM 20231 [2], first compound 0.2 µg/mL, partner 1.25 µg/mL | 0.661
S. aureus DSM 20231 [2], first compound 0.2 µg/mL, partner 2.5 µg/mL | 0.613
S. aureus DSM 20231 [2], first compound 0.2 µg/mL, partner 5 µg/mL | 0.329
S. aureus DSM 20231 [2], first compound 0.4 µg/mL, partner 2.5 µg/mL | 0.195
S. aureus DSM 20231 [2], first compound 0.4 µg/mL, partner 5 µg/mL | 0.0887
S. pneumoniae D39V [3], first compound 0.215 µg/mL, partner 0.325 µg/mL | 0.877
S. pneumoniae D39V [3], first compound 0.215 µg/mL, partner 0.65 µg/mL | 0.855
S. pneumoniae D39V [3], first compound 0.215 µg/mL, partner 1.3 µg/mL | 0.741
S. pneumoniae D39V [3], first compound 0.43 µg/mL, partner 0.325 µg/mL | 0.575
S. pneumoniae D39V [3], first compound 0.43 µg/mL, partner 0.65 µg/mL | 0.794
S. pneumoniae D39V [3], first compound 0.43 µg/mL, partner 1.3 µg/mL | 0.665
S. pneumoniae D39V [3], first compound 0.86 µg/mL, partner 0.325 µg/mL | 0.535
S. pneumoniae D39V [3], first compound 0.86 µg/mL, partner 0.65 µg/mL | 0.489
S. pneumoniae D39V [3], first compound 0.86 µg/mL, partner 1.3 µg/mL | 0.329

fitness, S. pneumoniae D39V [3], one replicate
Conditions | first compound 0.2 µg/mL | first compound 0.4 µg/mL | first compound 0.8 µg/mL
partner 0.325 µg/mL | 0.818 | 0.7 | 0.661
partner 0.65 µg/mL | 0.855 | 0.747 | 0.69

Conditions | Bliss interaction score
B. subtilis 168 [4] | 0.0751
S. aureus DSM 20231 [5] | -0.1
S. aureus Newman | -0.229
S. pneumoniae D39V [6] | 0.113
